Results on four molecules are retold here after patent US20250228873A1, “C25 R AND S ISOMERS OF AMINOSTEROLS AND METHODS OF MAKING AND USING THE SAME” (Enterin, Inc., priority 2022, published 2025).

For test [1], the target named is T1, PP2A Alpha/PP2R1A Complex (Homo sapiens, UniProt P67775).
T1 construct: purchased Recation Biology Inc
The test is described as follows: Phosphatase panel, DiFMUP fluorescence assay. It counts as biochemical.

For the next test, the target named is T2, DUSP22/MKPX (Homo sapiens, UniProt Q9NRW4).
T2 construct: purchased Recation Biology Inc
T2 sequence (Q9NRW4 1-184): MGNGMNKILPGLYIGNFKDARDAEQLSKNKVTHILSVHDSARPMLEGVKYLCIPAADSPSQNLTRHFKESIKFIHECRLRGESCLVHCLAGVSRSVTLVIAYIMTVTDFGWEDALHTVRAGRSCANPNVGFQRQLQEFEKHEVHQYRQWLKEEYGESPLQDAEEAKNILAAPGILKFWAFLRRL
As to the kind of experiment: Phosphatase panel, DiFMUP fluorescence assay. It counts as biochemical.

For another test, the target named is T3, PTPN12/PTP-PEST (Homo sapiens, UniProt Q05209).
T3 construct: purchased Recation Biology Inc
T3 sequence (Q05209 1-780): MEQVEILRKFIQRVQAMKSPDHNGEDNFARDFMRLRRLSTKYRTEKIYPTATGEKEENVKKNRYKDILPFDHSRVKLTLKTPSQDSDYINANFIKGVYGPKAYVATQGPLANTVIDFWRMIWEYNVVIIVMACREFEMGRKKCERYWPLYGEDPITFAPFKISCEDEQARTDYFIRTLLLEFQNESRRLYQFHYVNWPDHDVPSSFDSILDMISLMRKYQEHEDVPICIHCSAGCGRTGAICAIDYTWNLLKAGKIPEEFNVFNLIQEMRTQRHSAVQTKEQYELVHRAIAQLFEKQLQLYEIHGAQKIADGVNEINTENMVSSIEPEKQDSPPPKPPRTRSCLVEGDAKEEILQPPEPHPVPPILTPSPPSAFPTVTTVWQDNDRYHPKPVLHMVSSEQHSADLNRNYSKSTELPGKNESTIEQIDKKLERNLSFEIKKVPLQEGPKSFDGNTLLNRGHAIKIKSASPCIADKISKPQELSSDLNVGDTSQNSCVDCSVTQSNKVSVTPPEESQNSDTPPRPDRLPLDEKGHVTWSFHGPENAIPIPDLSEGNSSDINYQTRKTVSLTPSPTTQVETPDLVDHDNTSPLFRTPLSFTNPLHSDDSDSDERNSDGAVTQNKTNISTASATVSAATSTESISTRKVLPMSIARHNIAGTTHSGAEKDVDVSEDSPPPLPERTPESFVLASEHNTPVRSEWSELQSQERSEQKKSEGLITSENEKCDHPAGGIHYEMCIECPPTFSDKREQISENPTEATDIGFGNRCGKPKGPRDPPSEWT
As to the kind of experiment: Phosphatase panel, DiFMUP fluorescence assay. It counts as biochemical.

In the next test the target is T4, PTPN11/SHP2-FL(E76K) (Homo sapiens, UniProt Q06124, E76K).
T4 sequence (Q06124 2-597 isoform Q06124-1 E76K): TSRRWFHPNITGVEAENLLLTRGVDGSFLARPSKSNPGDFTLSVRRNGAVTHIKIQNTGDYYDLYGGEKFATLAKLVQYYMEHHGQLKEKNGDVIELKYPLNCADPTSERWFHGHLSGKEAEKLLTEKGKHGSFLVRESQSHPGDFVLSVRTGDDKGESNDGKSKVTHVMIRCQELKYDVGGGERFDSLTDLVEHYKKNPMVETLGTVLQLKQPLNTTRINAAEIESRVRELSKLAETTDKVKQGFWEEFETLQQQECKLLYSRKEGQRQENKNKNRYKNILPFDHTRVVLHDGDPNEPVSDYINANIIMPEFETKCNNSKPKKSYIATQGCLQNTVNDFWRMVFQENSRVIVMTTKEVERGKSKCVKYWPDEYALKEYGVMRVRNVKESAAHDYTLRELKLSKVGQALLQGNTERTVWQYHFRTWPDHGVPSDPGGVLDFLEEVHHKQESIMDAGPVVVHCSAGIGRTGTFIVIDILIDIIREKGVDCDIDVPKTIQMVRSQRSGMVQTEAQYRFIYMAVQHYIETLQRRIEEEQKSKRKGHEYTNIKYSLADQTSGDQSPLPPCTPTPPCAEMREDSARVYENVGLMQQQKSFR
The test is described as follows: Phosphatase panel, DiFMUP assay, E76K mutant.

In another test the target is T5, PTPN11/SHP2-FL (Homo sapiens, UniProt Q06124).
T5 sequence (Q06124 2-597 isoform Q06124-1): T4 sequence (Q06124 2-597 isoform Q06124-1 E76K) with K75E
The test is described as follows: Phosphatase panel, DiFMUP assay with activating peptide.

For the next test, the target named is T6, PP1B (Homo sapiens, UniProt P62140).
T6 construct: purchased Recation Biology Inc
The test is described as follows: Phosphatase panel, DiFMUP fluorescence assay. In kind it is biochemical.

For another test, the target named is T7, PP1A (Homo sapiens, UniProt P62136).
T7 construct: purchased Recation Biology Inc
As to the kind of experiment: Phosphatase panel, DiFMUP fluorescence assay. It counts as biochemical.

The next test deals with T8, PTPN6/SHP1 (Homo sapiens, UniProt P29350).
T8 construct: purchased Recation Biology Inc
The test is described as follows: Phosphatase panel, DiFMUP fluorescence assay. It counts as biochemical.

Where [2] appears, read: Table 5B, read-out: Compound IC50 (M) PP2A Alpha/PP2R1A Complex.
Setting [3] is: Table 5B, read-out: Compound IC50 (M) DUSP22/MKPX.
Where [4] appears, read: Table 5C, read-out: Compound IC50 (M) PTPN12/PTP-PEST.
Where [5] appears, read: Table 19A, read-out: inhibitory activity PP1B.
[6] abbreviates: Table 19A, read-out: inhibitory activity PP1A.
[7] abbreviates: Table 19A, read-out: inhibitory activity PP2A Alpha/PP2R1A Complex.
The mark [8] stands for this setting: Table 19A, read-out: inhibitory activity PTPN6/SHP1.
Setting [9] is: Table 19A, read-out: inhibitory activity DUSP22/MKPXPT.
[10] abbreviates: Table 19B, read-out: inhibitory activity PTPN12/PTP-PEST.

Changes are numbered by the printed parent chain. Read-outs that look alike come from different tables or passages of the source.

T1 sequence (P67775 whole entry): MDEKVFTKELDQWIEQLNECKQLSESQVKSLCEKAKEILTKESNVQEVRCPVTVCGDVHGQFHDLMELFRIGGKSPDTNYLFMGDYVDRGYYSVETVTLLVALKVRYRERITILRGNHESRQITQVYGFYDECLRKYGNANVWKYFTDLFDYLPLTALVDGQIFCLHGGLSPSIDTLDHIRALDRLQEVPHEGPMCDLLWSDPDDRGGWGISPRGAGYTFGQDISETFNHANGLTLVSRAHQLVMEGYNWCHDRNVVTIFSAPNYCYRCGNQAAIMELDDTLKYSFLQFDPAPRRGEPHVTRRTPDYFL
T1 sequence (P30153 whole entry partner): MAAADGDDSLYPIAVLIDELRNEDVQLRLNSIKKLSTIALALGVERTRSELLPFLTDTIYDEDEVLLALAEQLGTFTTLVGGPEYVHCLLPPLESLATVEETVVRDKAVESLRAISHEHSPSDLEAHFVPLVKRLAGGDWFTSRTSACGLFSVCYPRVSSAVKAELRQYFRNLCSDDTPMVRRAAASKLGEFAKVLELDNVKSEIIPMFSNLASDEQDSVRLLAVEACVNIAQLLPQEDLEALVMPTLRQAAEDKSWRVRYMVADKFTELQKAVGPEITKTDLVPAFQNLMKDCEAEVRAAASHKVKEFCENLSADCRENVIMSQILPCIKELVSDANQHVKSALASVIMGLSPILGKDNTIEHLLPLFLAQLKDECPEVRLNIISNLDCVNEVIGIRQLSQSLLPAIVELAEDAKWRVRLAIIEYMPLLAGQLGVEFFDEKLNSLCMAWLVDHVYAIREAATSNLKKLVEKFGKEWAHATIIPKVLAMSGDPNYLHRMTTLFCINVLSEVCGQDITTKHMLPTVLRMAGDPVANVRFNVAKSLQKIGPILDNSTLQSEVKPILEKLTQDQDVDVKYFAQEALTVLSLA
T8 sequence (P29350 whole entry): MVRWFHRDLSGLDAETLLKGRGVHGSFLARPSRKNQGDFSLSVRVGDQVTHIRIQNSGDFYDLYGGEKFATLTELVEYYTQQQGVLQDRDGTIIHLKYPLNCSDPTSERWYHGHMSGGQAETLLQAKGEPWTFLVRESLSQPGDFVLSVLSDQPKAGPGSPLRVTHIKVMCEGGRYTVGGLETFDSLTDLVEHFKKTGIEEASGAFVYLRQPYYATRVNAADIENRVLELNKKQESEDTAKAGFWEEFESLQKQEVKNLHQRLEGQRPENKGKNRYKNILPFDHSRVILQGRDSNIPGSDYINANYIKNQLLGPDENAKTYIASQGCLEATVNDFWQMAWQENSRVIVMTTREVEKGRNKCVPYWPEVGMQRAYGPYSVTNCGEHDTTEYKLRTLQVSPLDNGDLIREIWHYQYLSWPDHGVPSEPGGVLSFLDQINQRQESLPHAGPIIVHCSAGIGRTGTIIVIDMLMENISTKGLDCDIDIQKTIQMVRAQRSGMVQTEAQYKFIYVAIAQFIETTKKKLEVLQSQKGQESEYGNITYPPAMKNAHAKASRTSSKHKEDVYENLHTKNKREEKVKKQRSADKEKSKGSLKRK
T6 sequence (P62140 whole entry): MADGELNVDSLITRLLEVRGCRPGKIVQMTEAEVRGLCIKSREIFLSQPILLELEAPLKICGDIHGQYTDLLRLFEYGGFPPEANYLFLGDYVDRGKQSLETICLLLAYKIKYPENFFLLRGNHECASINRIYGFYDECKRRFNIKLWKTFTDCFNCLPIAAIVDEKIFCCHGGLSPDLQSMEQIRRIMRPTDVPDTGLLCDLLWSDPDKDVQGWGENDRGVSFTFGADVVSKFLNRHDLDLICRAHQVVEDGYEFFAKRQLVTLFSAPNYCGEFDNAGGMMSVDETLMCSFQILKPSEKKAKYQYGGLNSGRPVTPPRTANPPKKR
T7 sequence (P62136 whole entry): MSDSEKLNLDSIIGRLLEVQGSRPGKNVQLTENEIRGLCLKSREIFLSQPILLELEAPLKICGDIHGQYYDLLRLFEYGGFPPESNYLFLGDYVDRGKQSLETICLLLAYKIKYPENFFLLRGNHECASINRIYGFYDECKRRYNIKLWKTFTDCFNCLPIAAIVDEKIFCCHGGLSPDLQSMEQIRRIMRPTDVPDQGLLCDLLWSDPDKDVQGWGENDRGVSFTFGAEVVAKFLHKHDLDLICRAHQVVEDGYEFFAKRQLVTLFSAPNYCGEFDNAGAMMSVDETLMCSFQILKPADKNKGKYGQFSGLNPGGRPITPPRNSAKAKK

In the case of `CC(C)[C@@H](CC[C@@H](C)[C@H]1CC[C@H]2[C@@H]3[C@H](O)C[C@H]4C[C@@H](NCCCNCCCCNCCCN)CC[C@]4(C)[C@H]3CC[C@]12C)OS(=O)(=O)O` (single isomer, unassigned) [ENT-02 (MSI-1436), trodusquemine], the IC50 in test [1] (setting [2]) is 5.72e-05 M; on DUSP22/MKPX (setting [3]), 6.39e-07 M; at PTPN12/PTP-PEST (setting [4]), 1.72e-06 M; against PTPN11/SHP2-FL(E76K) it was 0.292 µM; against PTPN11/SHP2-FL, 0.752 µM.

In the case of `CC(CCC[C@@H](C)[C@H]1CCC2C3C(CC[C@@]21C)[C@@]1(C)CC[C@H](NCCCNCCCCNCCCN)C[C@@H]1C[C@H]3O)C(=O)O` (single isomer, unassigned) [ENT-03], the “activity at PP1B” value on PP1B was “inactive”. In addition, the IC50 is over 0.0001 M on PP1B (Table 5B, read-out: Compound IC50 (M) PP1B); over 0.0001 M on PP1B (setting [5]); over 0.0001 M at PP1A (Table 5B, read-out: Compound IC50 (M) PP1A); over 0.0001 M at PP1A (setting [6]); over 0.0001 M in test [1] (setting [2]); over 0.0001 M in test [1] (setting [7]). Moreover, the IC50 on PTPN6/SHP1 (Table 5B, read-out: Compound IC50 (M) PTPN6/SHP1) was over 0.0001 M; on PTPN6/SHP1 (setting [8]), over 0.0001 M; at DUSP22/MKPX (setting [3]), 1.38e-06 M; at DUSP22/MKPX (setting [9]), 1.38e-06 M; on PTPN12/PTP-PEST (setting [4]) it was 8.61e-07 M; at PTPN12/PTP-PEST (setting [10]), 8.61e-07 M. Further, the IC50 against PTPN11/SHP2-FL(E76K) was determined as 0.294 µM; at PTPN11/SHP2-FL it was 1.42 µM. The “activity at PP1A” value on PP1A was “inactive”. The “activity at PP2 Å alpha” value in test [1] was “inactive”. The “activity at PTPN6” value at PTPN6/SHP1 was “inactive”.

With `CC(CCC[C@@H](C)[C@H]1CCC2C3C(CC(O)[C@@]21C)[C@@]1(C)CC[C@H](NCCCNCCCCN)C[C@@H]1C[C@H]3O)C(=O)O` (single isomer, unassigned) [ENT-05], the IC50 was over 0.0001 M at PP1B (Table 18A, read-out: inhibitory activity PP1B); over 0.0001 M at PP1A (Table 18A, read-out: inhibitory activity PP1A); 3.8e-06 M in test [1] (Table 18A, read-out: inhibitory activity PP2A Alpha/PP2R1A Complex); over 0.0001 M at PTPN6/SHP1 (Table 18A, read-out: inhibitory activity PTPN6/SHP1); over 0.0001 M on DUSP22/MKPX (Table 18A, read-out: inhibitory activity DUSP22/MKPX); over 0.0001 M at PTPN12/PTP-PEST (Table 18B, read-out: inhibitory activity PTPN12/PTP-PEST). Also, the values for the IC50 against PTPN11/SHP2-FL(E76K) and on PTPN11/SHP2-FL were 0.043 µM and 0.976 µM, respectively.

`CC(CCC[C@@H](C)[C@H]1CCC2C3C(CC[C@@]21C)[C@@]1(C)CC[C@H](NCCCNCCCCN)C[C@@H]1C[C@H]3O)C(=O)O` (single isomer, unassigned) [ENT-06]: the IC50 at PP1B (setting [5]) was over 0.0001 M; at PP1A (setting [6]), over 0.0001 M; in test [1] (setting [7]), over 0.0001 M; on PTPN6/SHP1 (setting [8]), over 0.0001 M; on DUSP22/MKPX (setting [9]), 2.09e-06 M; at PTPN12/PTP-PEST (setting [10]), 8.62e-07 M. Besides, the IC50 at PTPN11/SHP2-FL(E76K) worked out at 0.345 µM; on PTPN11/SHP2-FL it was 3.17 µM.
